Test results published in US11221329B2, “Treatment of neurological and neurodevelopmental diseases and disorders associated with aberrant ion channel expression and activity” (LIEBER INSTITUTE FOR BRAIN DEVELOPMENT, priority 2015, dated 2022).
“Also recorded” adds a separate entry of the source.

Key:
shTCF4 cells = assay: Whole-cell current-clamp recordings (AP spiking, mAHP/sAHP) in shTCF4 (TCF4 knockdown) mPFC layer 2/3 pyramidal neurons, acute brain slices; type: cell-based, rat; settings: shTCF4 cells
Protocol: (§1) Pregnant Wistar rats were obtained from Charles River Laboratories, Inc., maintained by SoBran on a 12-hour light cycle and fed ad libitum. In utero electroporation was performed as previously described (Chen et al., 2014; Maher and Loturco, 2012a). Electroporation was performed on embryonic day 16 (E16) and gestation age was confirmed during surgery. All plasmids were used at a final concentration of 1.5 μg/μl, and the mPFC was targeted for transfection. Pregnant dams were returned to the same housing conditions after recovery from surgery, and after litters were born, transfected rats were used for experiments at days P18-24.
(§2) Acute brain slices were obtained from rats and mice as described previously (Maher and Loturco, 2012b). Briefly, P18-24 male and female animals were deeply anesthetized with isoflurane and transcardially perfused with ice-cold oxygenated (95% O2 and 5% CO2) dissecting buffer containing (in mM): 83 NaCl, 2.5 KCl, 1 NaH2PO4, 26.2 NaHCO3, 22 glucose, 72 sucrose, 0.5 CaCl2, and 3.3 MgCl2. Animals were humanly sacrificed and decapitated and the brains were rapidly removed and immersed in ice-cold oxygenated dissection buffer. Coronal slices (300 μm) were cut using a vibratome (Microm HM650V), incubated in dissection buffer for 30-45 minutes at 34° C., and then stored at room temperature. Slices were visualized using IR differential interference microscopy (DIC) (Olympus BX51WI) and a CCD camera (QICAM, QImaging). Individual layer 2/3 pyramidal cells expressing EGFP in rat brain slices were visualized with epifluorescent illumination and a 43× Olympus LUMPlanFLN (0.8 numerical aperture) objective.
(§3) For all experiments, artificial cerebrospinal fluid (ACSF) was oxygenated (95% O2 and 5% CO2) and contained in (in mM): 125 NaCl, 25 NaHCO3, 1.25 NaH2PO4, 3 KCl, 25 dextrose, 1 MgCl2, and 2 CaCl2, pH 7.3. Patch pipettes were fabricated from borosilicate glass (N51A, King Precision Glass, Inc.) to a resistance of 2-5 MΩ. For current- and voltage-clamp measurements, pipettes were filled with (in mM): 125 potassium gluconate, 10 HEPES, 4 Mg-ATP, 0.3 Na-GTP, 0.1 EGTA, 10 phosophocreatine, 0.05% biocytin, adjusted to pH 7.3 with KOH. For all experiments GABAa receptors were blocked with SR-95531 (Gabazine, 5 μM, Ascent Scientific). For AHP current experiments, synaptic currents were blocked with DL-2-amino-5-phosphopentanoic acid (D,L-AP5, 100 μM, Ascent Scientific), 2,3, dioxo-6-nitro-1,2,3,4, tetrahydrobenzo-quinoxaline-7-sulfonamide (NBQX, 10 μM) and SR-95531 (Gabazine, 5 μM, Ascent Scientific). Ca2+-activated currents were blocked with Tetraethylammonium chloride (TEA, 1 mM, Abcam), apamin (100 nM, Abcam), and carbachol (10 μM, Abcam). Current signals were recorded with either a Multiclamp 700A (Molecular Devices) or with an Axopatch 200B amplifier (Molecular Devices) and were filtered at 2 kHz using a built-in Bessel filter and digitized at 10 kHz. Voltage signals were filtered at 2 kHz and digitized at 10 kHz. Data were acquired using Axograph on a Dell PC. Data acquisition was terminated when series resistance was >15 MΩ. For voltage clamp recordings, pyramidal cells were held at −60 mV. No holding current was used for current-clamp recordings.
(§4) Axograph was used on a Macintosh computer for analysis. To measure spike frequency, EGFP-positive layer 2/3 neurons of the mPFC were injected with a 600 ms depolarizing current pulses ranging from 50 to 500 pA at 50 pA increments with an 10 s inter-trial interval. Each current pulse was measured in triplicate, and the number of resulting APs was averaged. For analysis of fAHP amplitude, the second and third current evoked spikes within the 600 ms pulse were measured. The fAHP potential was measured by subtracting the voltage at the peak of the fAHP from the threshold potential for spike initiation (slope of AP exceeds 50 mV/ms). The mAHP potential was measured at the peak of the AHP that followed the 600 ms current pulse. […]

TCF4+/tr cells = assay: Whole-cell current-clamp AP spiking in mPFC layer 2/3 neurons of the PTHS mouse model; type: cell-based
Protocol: (§5) In the mouse model used for Pitt-Hopkins syndrome (Sweatt, 2013) mice are heterozygous for a deletion of the DNA-binding domain of the Transcription Factor 4 (B6; 129-TCF4tm1Zhu/J; stock number 013598, Jackson Laboratory, Bar Harbor, Me.) (Zhuang et al., 1996). Control mouse experiments were conducted with wild-type littermates. Mice were maintained by SoBran on a 12-hour light cycle and fed ad libitum.
(§6) Acute brain slices were obtained from rats and mice as described previously (Maher and Loturco, 2012b). […]
(§7) For all experiments, artificial cerebrospinal fluid (ACSF) was oxygenated (95% O2 and 5% CO2) and contained in (in mM): 125 NaCl, 25 NaHCO3, 1.25 NaH2PO4, 3 KCl, 25 dextrose, 1 MgCl2, and 2 CaCl2, pH 7.3. […] Current signals were recorded with either a Multiclamp 700A (Molecular Devices) or with an Axopatch 200B amplifier (Molecular Devices) and were filtered at 2 kHz using a built-in Bessel filter and digitized at 10 kHz. […]
(§8) Axograph was used on a Macintosh computer for analysis. […] Each current pulse was measured in triplicate, and the number of resulting APs was averaged. For analysis of fAHP amplitude, the second and third current evoked spikes within the 600 ms pulse were measured. The fAHP potential was measured by subtracting the voltage at the peak of the fAHP from the threshold potential for spike initiation (slope of AP exceeds 50 mV/ms). […]

crTCF4 cells = assay: Whole-cell current-clamp AP spiking in crTCF4 (CRISPR-Cas9 TCF4 mutated) mPFC neurons; type: cell-based, rat
Protocol: as §1, §6
(§9) For all experiments, artificial cerebrospinal fluid (ACSF) was oxygenated (95% O2 and 5% CO2) and contained in (in mM): 125 NaCl, 25 NaHCO3, 1.25 NaH2PO4, 3 KCl, 25 dextrose, 1 MgCl2, and 2 CaCl2, pH 7.3. […] Current signals were recorded with either a Multiclamp 700A (Molecular Devices) or with an Axopatch 200B amplifier (Molecular Devices) and were filtered at 2 kHz using a built-in Bessel filter and digitized at 10 kHz.

crEmpty cells = assay: Whole-cell current-clamp AP spiking in crEmpty (CRISPR control) mPFC neurons; type: cell-based, rat
Protocol: as §1, §6, §9

[1] = system: prefrontal neurons from wildtype littermates; assay: Whole-cell current-clamp AP output in prefrontal neurons from wildtype littermates; type: cell-based, mouse
Protocol: as §5, §6, §7, §8

shCon cells = assay: Whole-cell current-clamp recordings (AP spiking, mAHP/sAHP) in shCon (control shRNA) mPFC layer 2/3 pyramidal neurons, acute brain slices; type: cell-based, rat
Protocol: as §1, §2, §3, §4

KCNQ2 = KCNQ2 (Homo sapiens, UniProt O43526); settings: KCNQ subtype-selective blocker; Soh and Tzingounis, 2010; cited from earlier work
KCNQ1 = KCNQ1 (Homo sapiens, UniProt P51787); settings: KCNQ subtype-selective blocker; Soh and Tzingounis, 2010; cited from earlier work

Row | SMILES | effect on the frequency of APs generated in response to increasing current injections (shTCF4 cells; A-803467 200 nM bath application, significant for current pulses 350-500 pA, N=11, p<0.05) | effect on the frequency of APs (TCF4+/tr cells; A-803467, significant for current pulses 250-350 pA, N=8) | effect on the frequency of APs (crTCF4 cells; A-803467, significant for current pulses 400-500 pA, N=8, p=0.039) | effect on AP frequency (crEmpty cells; A-803467, p=0.15) | effect on action potential output ([1]; A-803467, p=0.06, N=5) | effect on firing frequency (shCon cells; A-803467, N=7, p=0.14) | effect on the frequency of APs generated in response to current injections (shTCF4 cells; UCL2077 10 μM, before vs after, within neuron, significant for current pulses 250-500 pA, N=17, p=0.0002) | amplitude of the sAHP after application (shTCF4 cells; UCL2077, before −2.88±0.42 mV, N=19, p<0.05) | amplitude of the mAHP after application (shTCF4 cells; UCL2077, before −4.43±0.55 mV, N=19, p=0.003) | inhibition of KCNQ2 (KCNQ2) | effect on the frequency of AP spiking (TCF4+/tr cells; UCL2077, N=8) | effect on the frequency of APs (crTCF4 cells; UCL2077, significant for current pulses 400-500 pA, N=7, p=0.045) | inhibition of KCNQ1 (KCNQ1) | effect on AP frequency (crEmpty cells; UCL2077, p=0.99) | effect on action potential output ([1]; UCL2077, p=0.58, N=11) | effect on the frequency of APs (spiking) (shCon cells; UCL2077, N=8, p=0.35) | amplitude of the sAHP after application (shCon cells; UCL2077, before −2.60±0.42 mV, N=9, not significant) | amplitude of the mAHP after application (shCon cells; UCL2077, before −3.78±0.66 mV, N=9, not significant)
1 | COc1cc(NC(=O)c2ccc(-c3ccc(Cl)cc3)o2)cc(OC)c1 [A-803467, 5-(4-Chlorophenyl)-N-(3,5-dimethoxyphenyl)-2-furancarboxamide] | effective at increasing firing frequency; also recorded: significantly increased firing | effective at rescuing AP output; also recorded: significantly increased firing frequency | effective at increasing firing frequency; also recorded: significantly increased firing frequency | had no effect on firing frequency; also recorded: No effect on AP frequency | has no effect on action potential output | had no effect on firing frequency | – | – | – | – | – | – | – | – | – | – | – | –
2 | c1ccc(C(NCc2cccnc2)(c2ccccc2)c2ccccc2)cc1 [UCL2077, N-Trityl-3-pyridinemethanamine] | – | – | – | – | – | – | effective at increasing the spiking frequency; also recorded: significantly increased firing frequency | −2.53±0.38 mV | −3.736±0.49 mV | strongly inhibits | had no effect; also recorded: has no effect on the frequency of AP spiking | significantly increased firing frequency | strongly inhibits | No effect on AP frequency | has no effect on action potential output | neither UCL2077 (p=0.35) nor JNJ303 (p=0.11) had an effect on spiking | −2.69±0.48 mV | −4.01±0.66 mV
